Experimental data: the METLIN SMRT retention time set (Domingo-Almenara et al. 2019)

Assay: gradient 5% acetonitrile 3 min, to 50% in 2 min, to 85% in 15 min, held 3 min, 100 µL/min
Conditions: column: Zorbax Extend-C18 2.1 x 50 mm; eluents: water / acetonitrile, 0.1% formic acid
In short: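 The system's dead and dwell volumes were 40 μL and 900 μL, with a Zorbax Extend-C18 column (2.1 × 50 mm, 1.8 μm) run at 100 μL/min in water and acetonitrile containing 0.1% formic acid each. Pure standards were analyzed in mixtures of ~100 molecules by HPLC–quadrupole time-of-flight mass spectrometry in positive and negative ionization mode. Retention time was assigned from computationally picked, manually inspected adduct peaks.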

| Compound | RP-LC retention time [s] |
| --- | --- |
| C#CCOCC1CCN(C(=O)Cc2noc3ccccc23)CC1 | 761 |
| Cc1nnc2n1CCN(C(=O)Cc1c(F)cccc1Cl)C2 | 616 |
| Cc1nnc(N2CCCC(C(=O)N3CCC4(CC3)OCCO4)C2)c2nn(-c3ccccc3)c(C)c12 (stereo not drawn) | 660 |
| CCn1ncn2cc(S(=O)(=O)Nc3ccc(Cl)cc3)cc2c1=O | 792 |
| CSc1cccc(NC(=O)c2cn3c(n2)CSCC3)c1 | 763 |
| Cc1ccc(NS(=O)(=O)c2cc3n(c2)CCN(C(C)C)C3=O)cc1C | 794 |
| Cc1ccc(NC(=O)C2CCN(S(=O)(=O)c3ccc4c(c3)CCCC(=O)N4)CC2)cc1F | 817 |
| CCc1nc2cc(-c3noc(Cc4ccc(OC)c(OC)c4)n3)ccc2o1 | 956 |
| CCN1CCN(c2cc(C(=O)O)c3cc(NS(=O)(=O)c4cc(F)ccc4F)ccc3n2)CC1 | 594 |
| CN1C(=O)C(CC(=O)NC2CCCCC2)Sc2ncccc21 (stereo not drawn) | 703 |
| CC(C)c1ccc(S(=O)(=O)N2CCC(C)(C(=O)NCc3ccc(F)cc3)CC2)cc1 | 1050 |
| Cc1nc(-c2cc(S(=O)(=O)NCc3ccc(F)cc3F)c(C)s2)cs1 | 956 |
| Cc1ccc(S(=O)(=O)N2CCC(CCC(=O)N3CCN(C)CC3)CC2)cc1 | 627 |
| Cc1ccc(CNC(=O)c2[nH]c3cc(C)sc3c2CN2CCOCC2)cc1 | 735 |
| CCc1cccc(NC(=O)C2CCN(S(=O)(=O)c3cc(C(=O)N4CCCC4)cs3)CC2)c1 | 892 |
| CCCCCC[C@@H]([C@@H](C)O)n1cnc2c(N)ncnc21 | 714 |
| CC(=O)N1CCC2(CC1)NC(=O)c1cccc(C)c1O2 | 650 |
| COc1ccc(C2Cn3nnc(-c4nc(-c5ccc(C)c(C)c5)no4)c3CO2)cc1 (stereo not drawn) | 1270 |
| COc1ccc(NC(=O)N2CCC3(C2)C(=O)Nc2ccc(OC)cc23)c(OC)c1 (stereo not drawn) | 715 |
| CCc1nc2c(=O)n(CC(=O)N3CCCC3)nc(C)c2s1 | 620 |

| Compound | RP-LC retention time [s] |
| --- | --- |
| Cc1nc(C2CN(S(=O)(=O)c3cc(F)ccc3F)CC23CCOCC3)no1 (stereo not drawn) | 834 |
| Cc1ccc(S(=O)(=O)N2C[C@H](F)C[C@@H]2C(=O)N2CCOCC2)cc1Cl | 750 |
| Cc1nc(C2CC23CCN(S(=O)(=O)c2c(C)c(C)cc(C)c2C)CC3)no1 (stereo not drawn) | 1170 |
| Cn1cc(-c2nc(-c3cccc(Cl)c3)no2)c(=O)c2cc(F)c(N3CCCC3)cc21 | 627 |
| CC(C)c1nnc(C2CN(Cc3ccc(F)c(Cl)c3)CC23CCN(C)CC3)o1 (stereo not drawn) | 591 |
| CCCN(CC1CCOC1)C(=O)Nc1ccccc1C(F)(F)F (stereo not drawn) | 871 |
| O=C([C@H]1C[C@@H](F)CN1S(=O)(=O)Cc1ccc(Cl)cc1)N1CCOCC1 | 747 |
| CN1CCCc2cc(C(CNC(=O)C(=O)Nc3ccc4c(c3)OCCO4)N3CCCC3)ccc21 (stereo not drawn) | 718 |
| CN1C(=O)CCc2cc(NC(=O)Cc3ccsc3)ccc21 | 709 |
| CCOc1ccc(CNC(=O)C2CCCN(c3ccc(=O)n(-c4ccc(C)c(Cl)c4)n3)C2)cc1 (stereo not drawn) | 830 |
| OC[C@@H]1CNC[C@H]1C1CCN(Cc2ccc(Cl)c(F)c2)CC1 | 542 |
| O=c1c2cc3c(cc2nc(SCc2nc(-c4ccc(F)cc4)no2)n1Cc1ccccc1)OCO3 | 1200 |
| CCCCNC(=O)Cn1c(C)nc2onc(CC)c2c1=O | 726 |
| O=C(Cc1csc(NC(=O)c2ccc[nH]c2=O)n1)NCc1cccs1 | 626 |
| O=C(O)Cc1csc(NC(=O)C2CCC(=O)N2)n1 (stereo not drawn) | 528 |
| Cc1cc(C)c(CNC(=O)C2CCN(c3cncnc3N3CCN(C)CC3)CC2)c(C)c1 | 598 |
| Cc1ccc(-c2coc(-c3ccc(NS(=O)(=O)c4ccc(Cl)s4)cc3)n2)c(C)c1 | 1350 |
| COC(=O)Cn1c(=O)c2c(nc3n2CCCN3c2ccc(Cl)cc2)n(C)c1=O | 868 |
| COc1ccc(-c2cc3c(=O)n(Cc4noc(CN5CCC(C)CC5)n4)ccn3n2)cc1 | 664 |

Further lines, results first:

| RP-LC retention time [s] | Compound |
| --- | --- |
| 926 | CCCn1cc(S(=O)(=O)Nc2cc(F)ccc2C)c2cccnc21 |
| 710 | N#Cc1ccccc1NC(=O)Cc1ccc2c(c1)OCO2 |
| 612 | COc1ccc(C(CC(=O)N2CCN(c3ccccn3)CC2)N2Cc3ccccc3C2=O)cc1OC (stereo not drawn) |
| 725 | CN1C(=O)c2ccccc2Oc2ccc(C(=O)NC3CCCC3)cc21 |
| 916 | Cc1nn(C(=O)c2cccnc2)c(C)c1Sc1ccccc1[N+](=O)[O-] |
| 1040 | CC(C)c1noc(-c2cc(=O)n(CC(=O)Nc3cc(F)ccc3F)c3ccccc23)n1 |
| 724 | CN(C)c1cnc(-n2cc(NC(=O)CCCc3ccccc3)cn2)nc1 |
| 637 | Cc1ccc(S(=O)(=O)NCCn2ncccc2=O)s1 |
| 1330 | Cc1ccc(NC(=O)c2c(O)c3cccnc3n(-c3ccc(F)cc3)c2=O)c(F)c1 |
| 879 | CCCN1C(=O)C2CCC(=O)N2c2ccc(C(=O)Nc3cccc(SC)c3)cc21 (stereo not drawn) |
| 680 | CN(C)c1cccc(-c2nc(-c3ccc(CNC(=O)C4CC4)s3)no2)c1 |
| 638 | O=C(Cn1ncc2c(N3CCN(c4ccccn4)CC3)ncnc21)Nc1cccc(Cl)c1 |
| 588 | Fc1ccc2nc(Nc3nc(-c4ccncc4)cs3)sc2c1 |
| 745 | O=C(c1nccc2ccccc12)N1CCC(c2noc(C3CC3)n2)C1 (stereo not drawn) |
| 635 | CCc1nc2c(c(=O)n1CC(=O)Nc1ccc(OC)cc1)CN(Cc1ccccc1)CC2 |
| 600 | CCCc1nc2cccnc2n1C1CCN(C(=O)Nc2ccc3c(c2)OCCO3)C1 (stereo not drawn) |
| 687 | Cc1ccc(Cl)c(NC(=O)Cc2csc(C)n2)c1 |
| 791 | Cc1noc(-c2nn(C)c3c2CN(C(=O)COc2ccc(Cl)cc2)CC3)n1 |
| 704 | O=C(NCc1[nH]nc2ccccc12)c1ccc2c(c1)OCO2 |
| 1230 | COc1cc2c(cc1OC)C(C(=O)N1CCN(c3ccccn3)CC1)C(c1cccnc1)N(C)C2=O (stereo not drawn) |
| 756 | COc1cccc(CC(=O)N2CCC3(CC2)NC(=O)c2ccc(F)cc2N3C)c1 |
| 760 | Cc1ccc(C)c(NC(=O)C2CCN(C(=O)C3Sc4ccccc4NC3=O)CC2)c1 (stereo not drawn) |
| 721 | O=c1cc(-c2ccccc2)c2c(O)cc(O)cc2o1 |
| 1040 | COc1cc(OC)cc(C(=O)Nc2nc(-c3ccc4c(c3)N(C)C(=O)C(C)O4)cs2)c1 (stereo not drawn) |
| 697 | CC(C)NC(=O)c1ccc(-c2nc3cc(NS(=O)(=O)c4ccc(F)cc4F)ccc3n2C)cc1 |

| RP-LC retention time [s] | Compound |
| --- | --- |
| 857 | O=C(CN1CCN(Cc2ccccc2F)C1=O)N1CCN(c2ccccc2F)CC1 |
| 640 | O=C(NC1CCN(Cc2ccccc2)CC1)c1cc2n(n1)CCCN(Cc1ccccc1)C2=O |
| 648 | O=C(Cn1ncc2c(N3CCN(c4ccccn4)CC3)ncnc21)Nc1cccc(Br)c1 |
| 758 | O=C(Cc1cccs1)NC1CCCN(c2cc(-c3ccccc3)[nH]n2)C1 (stereo not drawn) |
| 894 | O=C(NCc1ccccc1Br)c1cn2nc(Cl)ccc2n1 |
| 685 | Cc1ccc(F)cc1S(=O)(=O)N1CCC2(CCN(c3cccnc3)C2)C1 (stereo not drawn) |
| 623 | Cc1cc(C)n2cc(CSc3nc4cc([N+](=O)[O-])ccc4s3)nc2n1 |
| 785 | O=C(NCc1ccco1)C1CCN(c2ccc(=O)n(-c3cccc(Cl)c3)n2)CC1 |
| 591 | COc1ccc(S(=O)(=O)N2CCCC(C(=O)NCc3cccnc3)C2)cc1OC (stereo not drawn) |
| 819 | CCn1nnc2ccc(-c3noc(-c4cccc(NC(C)=O)c4)n3)cc21 |
| 913 | CCOC(=O)c1csc(NC(=O)c2csc3nc(-c4ccc(F)cc4)cn23)n1 |
| 592 | CCOC(=O)CNC(=O)NCCn1c(-c2ccc(F)cc2)nc2ccccc21 |
| 858 | CCc1cccc(N2C=C(C(=O)N3CCOCC3)S(=O)(=O)c3ccc(F)cc32)c1 |
| 666 | COc1ccc(C(=O)N2C[C@@H]3C[C@H]2C[C@@H]3NC(=O)c2cccs2)cn1 |
| 648 | COCCNC(=O)C1c2ccccc2CC(=O)N1C(C)C (stereo not drawn) |
| 666 | CN(C1CCc2nn(Cc3ccccc3)c(=O)n2CC1)S(C)(=O)=O (stereo not drawn) |
| 739 | Cc1ccc(S(=O)(=O)N2CCC3(CC2)NCCN=C3NCc2ccccc2)c(C)c1 |
| 692 | CNC(=O)c1cccc(Nc2c(-c3ccc(Cl)cc3)nc3cnccn23)c1 |
| 1000 | COc1ccc(-c2ncc3c(n2)CCN(C(=O)c2ccc(Br)cc2)C3)cc1 |
| 1220 | Cc1ccc(-c2cc3c(=O)n(Cc4nc(-c5ccccc5Cl)no4)ncn3n2)c(C)c1 |
| 697 | CSc1nnc(-c2nn(C)c3c2CN(C(=O)c2ccccc2F)CC3)n1C |
| 660 | COCCn1cc(CCNC(=O)Nc2c(F)cccc2F)c2cccnc21 |
| 1040 | O=C(Nc1ncc(-c2ccccc2)s1)c1ccc(S(=O)(=O)N2CCCCC2)cc1 |
| 809 | Cc1cccc(N2C(=O)CN(S(C)(=O)=O)CC2(C)C(=O)NCc2ccc(F)cc2)c1C (stereo not drawn) |
